Test results as given in patent US20250129067A1 (Progentos Therapeutics, Inc., priority 2021, published 2025).
“And” between values parts separate entries of the source, which are not always exact repeats. Identical values can stand only once. Like-named read-outs stand apart in the source and are kept apart here.

How the values were obtained:
PDGFRα = PDGFRα (Homo sapiens (Human), UniProt P16234); test: PDGFRα kinase enzyme assay (Promega PDGFRα Kinase Enzyme System, ADP-Glo); type: biochemical; details: 150 uM ATP
Chain of PDGFRα (P16234 24-1089): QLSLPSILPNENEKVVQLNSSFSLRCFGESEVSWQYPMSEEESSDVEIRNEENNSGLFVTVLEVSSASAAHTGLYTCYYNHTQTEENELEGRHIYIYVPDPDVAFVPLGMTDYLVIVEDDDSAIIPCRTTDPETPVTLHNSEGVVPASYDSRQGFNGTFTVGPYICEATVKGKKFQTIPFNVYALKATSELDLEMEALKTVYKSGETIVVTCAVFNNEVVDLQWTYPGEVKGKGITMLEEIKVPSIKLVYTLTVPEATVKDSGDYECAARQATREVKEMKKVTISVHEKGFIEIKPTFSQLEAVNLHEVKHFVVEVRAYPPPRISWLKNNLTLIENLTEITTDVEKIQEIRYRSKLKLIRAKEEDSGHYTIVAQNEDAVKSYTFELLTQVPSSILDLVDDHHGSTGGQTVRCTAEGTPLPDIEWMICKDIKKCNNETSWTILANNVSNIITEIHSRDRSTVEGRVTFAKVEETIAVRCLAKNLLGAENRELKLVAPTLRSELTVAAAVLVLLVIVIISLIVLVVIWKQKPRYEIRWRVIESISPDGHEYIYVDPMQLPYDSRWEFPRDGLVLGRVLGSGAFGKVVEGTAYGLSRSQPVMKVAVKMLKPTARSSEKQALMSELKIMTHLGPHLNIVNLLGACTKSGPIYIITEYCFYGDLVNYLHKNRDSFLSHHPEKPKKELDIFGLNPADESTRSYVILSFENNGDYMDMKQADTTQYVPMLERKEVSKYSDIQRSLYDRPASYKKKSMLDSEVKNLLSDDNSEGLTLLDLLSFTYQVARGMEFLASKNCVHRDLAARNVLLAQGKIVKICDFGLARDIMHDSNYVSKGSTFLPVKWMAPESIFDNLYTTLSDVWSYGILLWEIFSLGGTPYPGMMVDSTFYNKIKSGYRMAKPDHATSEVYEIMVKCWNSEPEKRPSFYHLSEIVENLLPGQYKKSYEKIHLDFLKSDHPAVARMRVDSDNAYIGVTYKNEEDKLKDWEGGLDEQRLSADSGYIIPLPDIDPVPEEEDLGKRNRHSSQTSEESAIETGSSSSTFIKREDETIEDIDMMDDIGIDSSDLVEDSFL
Method in brief: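 Purified PDGFRα protein (20 ng) reacted with test compound per the Promega kinase system protocol. ADP formed was measured by ADP-Glo luminescence against a standard curve, giving IC50.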

[1] = test system: GPR17+ cells (newly differentiated oligodendrocytes); test: In vivo OPC differentiation, GPR17+ cells in brain
[2] = test system: Oligodendrocyte progenitor cells (OPCs); test: In vitro OPC differentiation assay, MBP expression (immunocytochemistry); details: 72 hours of treatment; fold change over vehicle
[3] = test system: Oligodendrocyte progenitor cells (OPCs); test: In vitro OPC differentiation assay, GPR17 expression (immunocytochemistry); details: 72 hours, fold change over vehicle; for GPR17 Fold Induction (Over Vehicle; 3 μM): 3 μM (10× concentration, final 0.3 μM); for GPR17 Fold Induction (Over Vehicle; 5 μM): 5 μM (10× concentration, final 0.5 μM)
[4] = 11-point dose response, 10,000 nM to 0.169 nM, BLQ = below limit of quantitation, read-out: IC50 Values on PDGFRα Kinase Inhibition, IC50
[5] = Mus musculus, po, 24 h, read-out: GPR17 Fold Induction (Over Vehicle)
[6] = 20 ng purified PDGFRα, Poly (Glu4Tyr1) substrate, two hours, 11-point dose response, read-out: IC50 Values on PDGFRα Kinase Inhibition

IC50 (PDGFRα; [4]) [nM]	GPR17 Fold Induction (Over Vehicle) ([1]; dose not assignable from Table 10, GPR17+ cells in brain, mice) [fold]	MBP Fold Induction (Over vehicle) [2]	GPR17 Fold Induction (Over Vehicle; 3 μM) [3]	IC50 (PDGFRα; [6]) [nM]	GPR17 Fold Induction (Over Vehicle; 5 μM) [3]	Compound	fold induction at 3 mg/kg [1, 5]	fold induction at 30 mg/kg [1, 5]	fold induction at 3.3 mg/kg [1, 5]	fold induction at 10 mg/kg [1, 5]
249	1.41	1.41	5.60			Cc1cccc(Cc2cnc(N3CCN(c4cnn5cc(-c6cnn(C)c6)ccc45)CC3)nc2)c1 [Compound 53, 3-{4-[5-(3-methylbenzyl)pyrimidin-2-yl]piperazin-1-yl}-6-(1-methyl-1H-pyrazol-4-yl)pyrazolo[1,5-a]pyridine]	1.22	4.64		
75.3		32.85	10.12			CCC(CC)C(O)c1cnc(N2CCN(c3cnn4cc(-c5cnn(C)c5)ccc34)CC2)nc1 (stereo not drawn) [Compound 177, 2-ethyl-1-(2-(4-(6-(1-methyl-1H-pyrazol-4-yl)pyrazolo[1,5-a]pyridin-3-yl)piperazin-1-yl)pyrimidin-5-yl)butan-1-ol]	2.37			
300		3.72	7.31			Cn1cc(-c2ccc3c(N4CCN(c5nc(Cc6ccccc6)co5)CC4)cnn3c2)cn1 [Compound 58, 3-[4-(4-benzyl-1,3-oxazol-2-yl)piperazin-1-yl]-6-(1-methyl-1H-pyrazol-4-yl)pyrazolo[1,5-a]pyridine]	5.5			
883		1.56	4.12	< 1000	3.69	Cn1cc(-c2ccc3c(N4CCN(C(=O)OCC(C)(C)C)CC4)cnn3c2)cn1 [Compound 3, 2,2-dimethylpropyl 4-[6-(1-methyl-1H-pyrazol-4-yl)pyrazolo[1,5-a]pyridin-3-yl]piperazine-1-carboxylate]			1.45	
38.4		7.73	6.09			Cn1cc(-c2ccc3c(N4CCN(C(=O)O[C@@H](c5ccccc5)C(F)(F)F)CC4)cnn3c2)cn1 [Compound 64, (1S)-2,2,2-trifluoro-1-phenylethyl 4-[6-(1-methyl-1H-pyrazol-4-yl)pyrazolo[1,5-a]pyridin-3-yl]piperazine-1-carboxylate]	2.13			
2420		2.1	7.38		4.40 and 4.45	Cn1cc(-c2cnc3c(N4CCN(c5ncc(Cc6ccccc6)cn5)CC4)cnn3c2)cn1 [Compound 7, 3-[4-(5-benzylpyrimidin-2-yl)piperazin-1-yl]-6-(1-methyl-1H-pyrazol-4-yl)pyrazolo[1,5-a]pyrimidine]				12.9
328		7.89	8.19			CC[C@@H](OC(=O)N1CCN(c2cnn3cc(-c4cnn(C)c4)ccc23)CC1)c1ccccc1 [Compound 80, (1R)-1-(Phenyl)propyl 4-[6-(1-methyl-1H-pyrazol-4-yl)pyrazolo[1,5-a]pyridin-3-yl]piperazine-1-carboxylate]	1.64			
283		5.15	6.82	< 1000	2.39	CCC(CC)OC(=O)N1CCN(c2cnn3cc(-c4cnn(C)c4)ccc23)CC1 [Compound 16, 1-ethylpropyl 4-[6-(1-methyl-1H-pyrazol-4-yl)pyrazolo[1,5-a]pyridin-3-yl]piperazine-1-carboxylate]				
3140		1.82	5.00			C[C@@H](OC(=O)N1CCN(c2cnn3nc(-c4cnn(C)c4)ccc23)CC1)c1ccccc1 [Compound 50, (R)-1-phenylethyl 4-(6-(1-methyl-1H-pyrazol-4-yl)pyrazolo[1,5-b]pyridazin-3-yl)piperazine-1-carboxylate]				
1190		16.04	3.90			Cn1cc(-c2ccc3c(N4CCN(c5ncc(C(O)c6ccccc6)o5)CC4)cnn3c2)cn1 (stereo not drawn) [Compound 248, (2-(4-(6-(1-methyl-1H-pyrazol-4-yl)pyrazolo[1,5-a]pyridin-3-yl)piperazin-1-yl)oxazol-5-yl)(phenyl)methanol]				
2.69		14.20	4.88			C[C@@H](OC(=O)N1CCN(c2cnn3cc(-c4cnn(C)c4)ccc23)CC1)c1ccc(F)c(F)c1 [Compound 266, (1R)-1-(3,4-difluorophenyl]ethyl 4-[6-(1-methyl-1H-pyrazol-4-yl)pyrazolo[1,5-a]pyridin-3-yl]piperazine-1-carboxylate]				
2080		1.48	3.90			CC(C)C(O)c1cnc(N2CCN(c3cnn4cc(-c5cnn(C)c5)ccc34)CC2)nc1 (stereo not drawn) [Compound 176, 2-methyl-1-(2-{4-[6-(1-methyl-1H-pyrazol-4-yl)pyrazolo[1,5-a]pyridin-3-yl]piperazin-1-yl}pyrimidin-5-yl)propan-1-ol]				
320		2.96	10.59		6.99	Cn1cc(-c2ccc3c(N4CCN(C(=O)OC5CCC5)CC4)cnn3c2)cn1 [Compound 32, cyclobutyl 4-[6-(1-methyl-1H-pyrazol-4-yl)pyrazolo[1,5-a]pyridin-3-yl]piperazine-1-carboxylate]				
1100		0.49	6.75			Cn1cc(-c2ccc3c(N4CCN(c5ncc(Cc6c[nH]c7ccccc67)cn5)CC4)cnn3c2)cn1 [Compound 173, 3-[(2-{4-[6-(1-methylpyrazol-4-yl)pyrazolo[1,5-a]pyridin-3-yl]piperazin-1-yl}pyrimidin-5-yl)methyl]-1H-indole]				
26.8		5.22	6.72			CC(=O)OC(c1ccc(F)cc1)c1cnc(N2CCN(c3cnn4cc(-c5cnn(C)c5)ccc34)CC2)nc1 (stereo not drawn) [Compound 264, (4-fluorophenyl)(2-(4-(6-(1-methyl-1H-pyrazol-4-yl)pyrazolo[1,5-a]pyridin-3-yl)piperazin-1-yl)pyrimidin-5-yl)methyl acetate]				
6190		1.41	5.65		3.81	Cn1cc(-c2ccc3c(N4CCN(c5ncccn5)CC4)cnn3c2)cn1 [Compound 10, 6-(1-methyl-1H-pyrazol-4-yl)-3-(4-pyrimidin-2-ylpiperazin-1-yl)pyrazolo[1,5-a]pyridine]				
1680		2.33	10.86		3.18	Cn1cc(-c2ccc3c(N4CCN(c5ncc(Cc6ccccc6)cn5)CC4)cnn3n2)cn1 [Compound 8, 3-[4-(5-benzylpyrimidin-2-yl)piperazin-1-yl]-6-(1-methyl-1H-pyrazol-4-yl)pyrazolo[1,5-b]pyridazine]				
517		12.61	5.98			COC(c1ccc(F)cc1)c1cnc(N2CCN(c3cnn4cc(-c5cnn(C)c5)ccc34)CC2)nc1 (stereo not drawn) [Compound 263, 3-(4-(5-((4-fluorophenyl)(methoxy)methyl)pyrimidin-2-yl)piperazin-1-yl)-6-(1-methyl-1H-pyrazol-4-yl)pyrazolo[1,5-a]pyridine]				
3880		2.49	6.36			Cn1cc(-c2ccc3c(NC4CN(c5ncc(Cc6ccccc6)cn5)C4)cnn3c2)cn1 [Compound 131, N-(1-(5-benzylpyrimidin-2-yl)azetidin-3-yl)-6-(1-methyl-1H-pyrazol-4-yl)pyrazolo[1,5-a]pyridin-3-amine]				
925		4.26	9.41		3.20	COCCn1cc(-c2ccc3c(N4CCN(c5ncc(Cc6ccccc6)cn5)CC4)cnn3c2)cn1 [Compound 29, 3-[4-(5-benzylpyrimidin-2-yl)piperazin-1-yl]-6-[1-(2-methoxyethyl)-1H-pyrazol-4-yl]pyrazolo[1,5-a]pyridine]				
1140		2.58	8.56			c1ccc(Cc2cnc(N3CCN(c4cnn5cc(-c6cn[nH]c6)ccc45)CC3)nc2)cc1 [Compound 255, 3-[4-(5-benzylpyrimidin-2-yl)piperazin-1-yl]-6-(1H-pyrazol-4-yl)pyrazolo-[1,5-a]pyridine]				
563		5.83	7.19			Cn1cc(-c2cnc3c(N4CCN(c5ncc(C(O)c6ccc(F)cc6)cn5)CC4)cnn3c2)cn1 (stereo not drawn) [Compound 74, (4-Fluorophenyl)(2-{4-[6-(1-methyl-1H-pyrazol-4-yl)pyrazolo[1,5-a]pyrimidin-3-yl]piperazin-1-yl}pyrimidin-5-yl)methanol]				
